In patent US7572797B2, “Amino substituted pyrazine derivatives for the treatment of pain” (Pfizer Inc., priority 2005, dated 2009):
Like-named read-outs stand apart in the source and are kept apart here.

Legend:
Human Nav1.8 = molecular target: T1, Human Nav1.8 (Homo sapiens, UniProt Q9Y5Y9); experiment: VIPR assay for Nav1.8 (FRET membrane potential, deltamethrin as opener); format: cell-based; details: for IC50: HEK293 cells expressing human Nav1.8, average of replicates; for Selectivity Ratio: TTX-S IC50 / NaV1.8 IC50
T1 construct: expressed in transfected cells

[1] = system: tetrodotoxin-sensitive voltage-gated sodium channels including NaV1.2, NaV1.3 and NaV1.7 (SHSY-5Y cell line); experiment: TTX-S assay in SHSY-5Y cell line (VIPR procedure, veratridine as opener); format: cell-based; details: read-out: TTX-S IC50, SHSY-5Y cells, veratridine 50 μM, average of replicates
[2] = automated dissolution procedure

T1 sequence (Q9Y5Y9 whole entry): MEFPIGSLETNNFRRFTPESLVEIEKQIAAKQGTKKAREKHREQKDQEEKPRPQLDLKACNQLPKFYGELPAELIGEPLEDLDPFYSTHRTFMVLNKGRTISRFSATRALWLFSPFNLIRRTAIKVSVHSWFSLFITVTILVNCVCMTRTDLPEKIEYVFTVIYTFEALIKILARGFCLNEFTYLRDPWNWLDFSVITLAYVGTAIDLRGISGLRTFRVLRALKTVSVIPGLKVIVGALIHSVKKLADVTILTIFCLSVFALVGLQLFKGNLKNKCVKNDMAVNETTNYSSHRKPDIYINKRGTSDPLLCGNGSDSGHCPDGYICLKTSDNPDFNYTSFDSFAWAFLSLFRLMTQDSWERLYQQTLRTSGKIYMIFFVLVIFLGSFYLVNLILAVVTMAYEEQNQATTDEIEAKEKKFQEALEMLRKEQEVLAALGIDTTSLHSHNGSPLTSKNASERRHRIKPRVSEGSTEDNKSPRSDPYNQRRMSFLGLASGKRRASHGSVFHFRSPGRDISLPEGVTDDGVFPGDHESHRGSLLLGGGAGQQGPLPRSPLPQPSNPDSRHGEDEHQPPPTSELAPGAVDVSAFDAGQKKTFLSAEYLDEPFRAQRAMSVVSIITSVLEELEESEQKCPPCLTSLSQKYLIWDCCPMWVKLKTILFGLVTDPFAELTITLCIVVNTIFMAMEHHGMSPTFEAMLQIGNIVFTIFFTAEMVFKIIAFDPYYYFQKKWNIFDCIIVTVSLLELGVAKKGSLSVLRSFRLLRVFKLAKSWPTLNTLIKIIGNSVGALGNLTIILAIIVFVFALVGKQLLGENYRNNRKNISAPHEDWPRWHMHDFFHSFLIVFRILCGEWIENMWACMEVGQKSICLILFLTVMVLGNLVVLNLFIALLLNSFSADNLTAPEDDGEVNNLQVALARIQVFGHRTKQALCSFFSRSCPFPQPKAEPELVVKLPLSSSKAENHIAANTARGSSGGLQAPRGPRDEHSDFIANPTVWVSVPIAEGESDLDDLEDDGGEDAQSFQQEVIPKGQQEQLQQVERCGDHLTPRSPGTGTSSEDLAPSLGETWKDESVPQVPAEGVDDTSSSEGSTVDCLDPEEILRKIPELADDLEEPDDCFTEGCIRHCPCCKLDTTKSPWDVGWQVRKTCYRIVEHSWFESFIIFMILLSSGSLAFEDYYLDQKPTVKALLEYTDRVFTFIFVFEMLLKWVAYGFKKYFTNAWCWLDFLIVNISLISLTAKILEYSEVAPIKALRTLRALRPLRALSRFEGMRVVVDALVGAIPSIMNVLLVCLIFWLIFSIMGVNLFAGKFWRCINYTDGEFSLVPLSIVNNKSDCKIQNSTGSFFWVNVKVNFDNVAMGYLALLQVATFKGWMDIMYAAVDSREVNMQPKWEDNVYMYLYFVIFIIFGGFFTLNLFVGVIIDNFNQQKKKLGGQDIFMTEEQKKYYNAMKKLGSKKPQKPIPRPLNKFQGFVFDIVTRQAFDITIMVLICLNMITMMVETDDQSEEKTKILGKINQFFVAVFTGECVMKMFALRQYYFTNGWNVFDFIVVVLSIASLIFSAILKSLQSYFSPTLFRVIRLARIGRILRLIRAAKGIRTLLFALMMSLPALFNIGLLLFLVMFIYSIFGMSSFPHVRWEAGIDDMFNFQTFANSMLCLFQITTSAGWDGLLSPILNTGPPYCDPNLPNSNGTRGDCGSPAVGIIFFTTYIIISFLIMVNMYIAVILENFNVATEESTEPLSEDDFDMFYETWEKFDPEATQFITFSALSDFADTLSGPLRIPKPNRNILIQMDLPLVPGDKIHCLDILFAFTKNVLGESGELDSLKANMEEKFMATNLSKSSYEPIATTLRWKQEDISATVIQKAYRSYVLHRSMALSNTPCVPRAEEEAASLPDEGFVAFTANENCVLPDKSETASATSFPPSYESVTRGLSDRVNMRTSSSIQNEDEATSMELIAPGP

Question: Which results are given for `Cc1nonc1C(=O)Nc1cnc(-c2cc(Cl)ccc2Cl)c(N)n1` [Example 23, N-[6-amino-5-(2,5-dichlorophenyl)pyrazin-2-yl]-4-methyl-1,2,5-oxadiazole-3-carboxamide]?
Answer: IC50 (Human Nav1.8; [2]): 8.04 µM; Selectivity Ratio (Human Nav1.8; [2]): >3.54; IC50 [1, 2]: > 28.5 µM

Question: What does the source list for `COc1cc(Cl)cc(-c2ncc(NC(=O)c3conc3C)nc2N)c1Cl` [Example 49, N-[6-Amino-5-(2,5-dichloro-3-methoxyphenyl)pyrazin-2-y]-3-methylisoxazole-4-carboxamide]?
Answer: IC50 (Human Nav1.8; [2]): 0.629 µM; Selectivity Ratio (Human Nav1.8; [2]): >21.6; IC50 [1, 2]: > 13.6 µM

Question: How did the IC50 (Human Nav1.8; [2]) turn out when `Cc1oncc1C(=O)Nc1cnc(-c2cc(Cl)cc(Cl)c2Cl)c(N)n1` [Example 14, N-[6-amino-5-(2,3,5-trichlorophenyl)pyrazin-2-yl]-5-methylisoxazole-4-carboxamide] was run?
Answer: 1.36 µM

Question: What about the IC50 (Human Nav1.8; manual dissolution procedure) of the same compound?
Answer: 0.276 µM

Question: What about the “Selectivity Ratio” value (Human Nav1.8; [2]) of the same compound?
Answer: 10.8

Question: What about the “Selectivity Ratio” value (Human Nav1.8; manual dissolution procedure) of the same compound?
Answer: 12.7

Question: And the IC50 [1, 2]?
Answer: 14.7 µM

Question: And the IC50 ([1]; manual dissolution procedure)?
Answer: 3.49 µM

Question: Which results are given for `Cn1nccc1C(=O)Nc1cnc(-c2cc(Cl)cc(Cl)c2Cl)c(N)n1` [Example 1, N-[6-Amino-5-(2,3,5-trichlorophenyl)pyrazin-2-yl]-1-methyl-1H-pyrazole-5-carboxamide]?
Answer: IC50 (Human Nav1.8; manual dissolution procedure): 0.988 µM; Selectivity Ratio (Human Nav1.8; manual dissolution procedure): 11.4; IC50 ([1]; manual dissolution procedure): 11.2 µM

Question: What does the source list for `Cn1nccc1C(=O)Nc1cnc(-c2cccc(Cl)c2Cl)c(N)n1` [Example 5, N-[6-amino-5-(2,3-dichlorophenyl)pyrazin-2-yl]-1-methyl-1H-pyrazole-5-carboxamide]?
Answer: IC50 (Human Nav1.8; [2]): 6.14 µM; Selectivity Ratio (Human Nav1.8; [2]): ->4.28; IC50 [1, 2]: > 26.3 µM

Question: For `COc1ccc(Cl)c(-c2ncc(NC(=O)c3c(C)noc3C)nc2N)c1` [Example 36, N-[6-amino-5-(2-chloro-5-methoxyphenyl)pyrazin-2-yl]-3,5-dimethylisoxazole-4-carboxamide], which IC50 (Human Nav1.8; [2]) is on record?
Answer: 13.9 µM

Question: What about the “Selectivity Ratio” value (Human Nav1.8; [2]) of the same compound?
Answer: >2.18

Question: And the IC50 [1, 2]?
Answer: > 30.2 µM

Question: What does the source list for `Cc1nocc1C(=O)Nc1cnc(-c2cc(Cl)ccc2Cl)c(N)n1` [Example 20, N-[6-amino-5-(2,5-dichlorophenyl)pyrazin-2-yl]-3-methylisoxazole-4-carboxamide]?
Answer: IC50 (Human Nav1.8; [2]): 0.511 µM; IC50 (Human Nav1.8; manual dissolution procedure): 0.188 µM; Selectivity Ratio (Human Nav1.8; [2]): 18.00; Selectivity Ratio (Human Nav1.8; manual dissolution procedure): 66.5; IC50 [1, 2]: 9.2 µM; IC50 ([1]; manual dissolution procedure): 12.5 µM

Question: How did the IC50 (Human Nav1.8; [2]) turn out when `COc1ccc(Cl)c(-c2ncc(NC(=O)c3ccnn3C)nc2N)c1` [Example 2, N-[6-Amino-5-(2-chloro-5-methoxyphenyl)pyrazin-2-yl]-1-methyl-1H-pyrazole-5-carboxamide] was run?
Answer: 3.24 µM

Question: What about the “Selectivity Ratio” value (Human Nav1.8; [2]) of the same compound?
Answer: 11.8

Question: What about the IC50 [1, 2] of the same compound?
Answer: 38.3 µM

Question: `COCCn1nccc1C(=O)Nc1cnc(-c2cccc(Cl)c2Cl)c(N)n1` [Example 58, N-[6-amino-5-(2,3-dichlorophenyl)pyrazin-2-yl]-1-(2-methoxyethyl)-1H-pyrazole-5-carboxamide] was tested. Which IC50 (Human Nav1.8; [2]) did it give?
Answer: 9.42 µM

Question: And the “Selectivity Ratio” value (Human Nav1.8; [2])?
Answer: >3.21

Question: And the IC50 [1, 2]?
Answer: > 30.2 µM

Question: Which IC50 (Human Nav1.8; [2]) does the source give for `Cn1nccc1C(=O)Nc1cnc(-c2cc(Cl)cc3c2OCCO3)c(N)n1` [Example 3, N-[6-Amino-5-(7-chloro-2,3-dihydro-1,4-benzodioxin-5-yl)pyrazin-2-yl]-1-methyl-1H-pyrazole-5-carboxamide] here?
Answer: 15.2 µM

Question: And the “Selectivity Ratio” value (Human Nav1.8; [2])?
Answer: >1.89

Question: What about the IC50 [1, 2] of the same compound?
Answer: > 28.8 µM

Question: With `Cc1nonc1C(=O)Nc1cnc(-c2ccccc2Cl)c(N)n1` [Example 55, N-[6-amino-5-(2-chlorophenyl)pyrazin-2-yl]-4-methyl-1,2,5-oxadiazole-3-carboxamide] as the compound, how does the IC50 (Human Nav1.8; [2]) read?
Answer: > 21.5 µM

Question: What about the “Selectivity Ratio” value (Human Nav1.8; [2]) of the same compound?
Answer: ->1.40

Question: What about the IC50 [1, 2] of the same compound?
Answer: > 30.2 µM

Question: With `CC(C)c1oncc1C(=O)Nc1cnc(-c2ccccc2Cl)c(N)n1` [Example 51, N-[6-amino-5-(2-chlorophenyl)pyrazin-2-yl]-5-isopropylisoxazole-4-carboxamide] as the compound, how does the IC50 (Human Nav1.8; [2]) read?
Answer: 0.964 µM

Question: And the “Selectivity Ratio” value (Human Nav1.8; [2])?
Answer: >21.89

Question: What about the IC50 [1, 2] of the same compound?
Answer: > 21.1 µM

Question: `COc1ccc(Cl)c(-c2ncc(NC(=O)c3cnoc3C)nc2N)c1` [Example 15, N-[6-amino-5-(2-chloro-5-methoxyphenyl)pyrazin-2-yl]-5-methylisoxazole-4-carboxamide] was tested. Which IC50 (Human Nav1.8; [2]) did it give?
Answer: > 30.2 µM

Question: And the IC50 [1, 2]?
Answer: > 30.4 µM

Question: Which results are given for `COc1cc(Cl)cc(-c2ncc(NC(=O)c3cnoc3C)nc2N)c1Cl` [Example 13, N-[6-amino-5-(2,5-dichloro-3-methoxyphenyl)pyrazin-2-yl]-5-methylisoxazole-4-carboxamide]?
Answer: IC50 (Human Nav1.8; [2]): 10.4 µM; Selectivity Ratio (Human Nav1.8; [2]): >2.48; IC50 [1, 2]: > 25.8 µM

Question: How did the IC50 (Human Nav1.8; [2]) turn out when `CCc1noc(C)c1C(=O)Nc1cnc(-c2cc(OC)ccc2Cl)c(N)n1` [Example 31, N-[6-amino-5-(2-chloro-5-methoxyphenyl)pyrazin-2-yl]-3-ethyl-5-methylisoxazole-4-carboxamide] was run?
Answer: 5.38 µM

Question: What about the “Selectivity Ratio” value (Human Nav1.8; [2]) of the same compound?
Answer: >5.22

Question: And the IC50 [1, 2]?
Answer: > 28.1 µM

Question: `Cc1nocc1C(=O)Nc1cnc(-c2cc(Cl)cc(Cl)c2Cl)c(N)n1` [Example 18, N-[6-amino-5-(2,3,5-trichlorophenyl)pyrazin-2-yl]-3-methylisoxazole-4-carboxamide] was tested. Which IC50 (Human Nav1.8; manual dissolution procedure) did it give?
Answer: 0.417 µM

Question: What about the “Selectivity Ratio” value (Human Nav1.8; manual dissolution procedure) of the same compound?
Answer: >72.0

Question: And the IC50 ([1]; manual dissolution procedure)?
Answer: > 30 µM

Question: How did the IC50 (Human Nav1.8; [2]) turn out when `Cn1nccc1C(=O)Nc1cnc(-c2ccccc2Cl)c(N)n1` [Example 57, N-[6-amino-5-(2-chlorophenyl)pyrazin-2-yl]-1-methyl-1H-pyrazole-5-carboxamide] was run?
Answer: > 28.4 µM

Question: And the IC50 [1, 2]?
Answer: > 30.2 µM

Question: Which results are given for `COc1cc(Cl)cc(-c2ncc(NC(=O)c3cnoc3)nc2N)c1Cl` [Example 48, N-[6-amino-5-(2,5-dichloro-3-methoxyphenyl)pyrazin-2-yl]isoxazole-4-carboxamide]?
Answer: IC50 (Human Nav1.8; [2]): 8.06 µM; Selectivity Ratio (Human Nav1.8; [2]): >3.75; IC50 [1, 2]: > 30.2 µM

Question: For `Cc1oncc1C(=O)Nc1cnc(-c2ccccc2Cl)c(N)n1` [Example 50, N-[6-amino-5-(2-chlorophenyl)pyrazin-2-yl]-5-methylisoxazole-4-carboxamide], which IC50 (Human Nav1.8; [2]) is on record?
Answer: 10.3 µM

Question: And the “Selectivity Ratio” value (Human Nav1.8; [2])?
Answer: >2.90

Question: What about the IC50 [1, 2] of the same compound?
Answer: > 29.9 µM

Question: What does the source list for `COc1ccc(Cl)c(-c2ncc(NC(=O)c3conc3C)nc2N)c1` [Example 28, N-[6-amino-5-(2-chloro-5-methoxyphenyl)pyrazin-2-yl]-3-methylisoxazole-4-carboxamide]?
Answer: IC50 (Human Nav1.8; [2]): 2.61 µM; Selectivity Ratio (Human Nav1.8; [2]): 9.81; IC50 [1, 2]: 25.6 µM

Question: How did the IC50 (Human Nav1.8; [2]) turn out when `Nc1nc(NC(=O)c2ccn[nH]2)cnc1-c1cc(Cl)ccc1Cl` [Example 62, N-[6-amino-5-(2,5-dichlorophenyl)pyrazin-2-yl]-1H-pyrazole-5-carboxamide] was run?
Answer: > 30.2 µM

Question: And the IC50 [1, 2]?
Answer: > 30.2 µM

Question: With `Cc1nocc1C(=O)Nc1cnc(-c2cccc3ccccc23)c(N)n1` [Example 19, N-[6-amino-5-(1-naphthyl)pyrazin-2-yl]-3-methylisoxazole-4-carboxamide] as the compound, how does the IC50 (Human Nav1.8; manual dissolution procedure) read?
Answer: 4.72 µM

Question: And the “Selectivity Ratio” value (Human Nav1.8; manual dissolution procedure)?
Answer: >6.36

Question: What about the IC50 ([1]; manual dissolution procedure) of the same compound?
Answer: > 30 µM

Question: `COCCn1nccc1C(=O)Nc1cnc(-c2cc(OC)ccc2Cl)c(N)n1` [Example 34, N-[6-amino-5-(2-chloro-5-methoxyphenyl)pyrazin-2-yl]-1-(2-methoxyethyl)-1H-pyrazole-5-carboxamide] was tested. Which IC50 (Human Nav1.8; [2]) did it give?
Answer: 15.6 µM

Question: What about the IC50 [1, 2] of the same compound?
Answer: > 30.2 µM

Question: What does the source list for `Cc1nocc1C(=O)Nc1cnc(-c2ccccc2Cl)c(N)n1` [Example 16, N-[6-amino-5-(2-chlorophenyl)pyrazin-2-yl]-3-methylisoxazole-4-carboxamide]?
Answer: IC50 (Human Nav1.8; [2]): 1.01 µM; Selectivity Ratio (Human Nav1.8; [2]): >23.6; IC50 [1, 2]: > 24 µM

Question: For `Nc1nc(NC(=O)c2cnoc2)cnc1-c1cccc(Cl)c1Cl` [Example 60, N-[6-amino-5-(2,3-dichlorophenyl)pyrazin-2-yl]isoxazole-4-carboxamide], which IC50 (Human Nav1.8; [2]) is on record?
Answer: 7.19 µM

Question: What about the “Selectivity Ratio” value (Human Nav1.8; [2]) of the same compound?
Answer: >4.20

Question: What about the IC50 [1, 2] of the same compound?
Answer: > 30.2 µM

Question: How did the IC50 (Human Nav1.8; [2]) turn out when `COCCn1nccc1C(=O)Nc1cnc(-c2ccccc2Cl)c(N)n1` [Example 56, N-[6-amino-5-(2-chlorophenyl)pyrazin-2-yl]-1-(2-methoxyethyl)-1H-pyrazole-5-carboxamide] was run?
Answer: > 26.7 µM

Question: What about the IC50 [1, 2] of the same compound?
Answer: > 30.2 µM

Question: With `COc1ccc(Cl)c(-c2ncc(NC(=O)c3ccon3)nc2N)c1` [Example 37, N-[6-amino-5-(2-chloro-5-methoxyphenyl)pyrazin-2-yl]isoxazole-3-carboxamide] as the compound, how does the IC50 (Human Nav1.8; [2]) read?
Answer: > 29.4 µM

Question: What about the IC50 [1, 2] of the same compound?
Answer: > 30.2 µM

Question: How did the IC50 (Human Nav1.8; [2]) turn out when `Cn1nccc1C(=O)Nc1cnc(-c2cc(F)ccc2Cl)c(N)n1` [Example 4, N-[6-amino-5-(2-chloro-5-fluorophenyl)pyrazin-2-yl]-1-methyl-1H-pyrazole-5-carboxamide] was run?
Answer: 8.73 µM

Question: What about the “Selectivity Ratio” value (Human Nav1.8; [2]) of the same compound?
Answer: >3.46

Question: And the IC50 [1, 2]?
Answer: > 30.2 µM

Question: Which IC50 (Human Nav1.8; [2]) does the source give for `COc1ccc(Cl)c(-c2ncc(NC(=O)c3cnoc3)nc2N)c1` [Example 33, N-[6-amino-5-(2-chloro-5-methoxyphenyl)pyrazin-2-yl]isoxazole-4-carboxamide] here?
Answer: > 22.7 µM

Question: And the “Selectivity Ratio” value (Human Nav1.8; [2])?
Answer: ->1.33

Question: What about the IC50 [1, 2] of the same compound?
Answer: > 30.2 µM

Question: Which results are given for `COc1ccc(Cl)c(-c2ncc(NC(=O)c3cnoc3C(C)C)nc2N)c1` [Example 30, N-[6-amino-5-(2-chloro-5-methoxyphenyl)pyrazin-2-yl]-5-isopropylisoxazole-4-carboxamide]?
Answer: IC50 (Human Nav1.8; [2]): 3.63 µM; Selectivity Ratio (Human Nav1.8; [2]): >8.15; IC50 [1, 2]: > 29.6 µM

Question: Which results are given for `COc1cc(Cl)c(Cl)c(-c2ncc(NC(=O)c3ccnn3C)nc2N)c1` [Example 12, N-[6-Amino-5-(2,3-dichloro-5-methoxyphenyl)pyrazin-2-yl]-1-methyl-1H-pyrazole-5-carboxamide]?
Answer: IC50 (Human Nav1.8; [2]): 1.31 µM; Selectivity Ratio (Human Nav1.8; [2]): 12.67; IC50 [1, 2]: 16.6 µM
